According to US9364449B2, “Peptoid and synthetic oligomers, pharmaceutical compositions and methods of using same” (New York University, priority 2011, dated 2016):
Non-standard residues stand in square brackets, D forms with d. Residues, ends and D or L forms follow the SMILES beside them. Sar = CNCC(=O)O

Tested on: eAβ1-x in brain interstitial fluid (ISF)
Assay: In vivo microdialysis of brain interstitial fluid eAβ in AD transgenic mice
Parameters: species or system APPSW/PS1L166P AD transgenic mice
Conditions: 100 μM compound by reverse microdialysis into hippocampal CA1
Method: Mice were anesthetized with an intraperitoneal injection of Ketamine (50 mg/kg) and Xylazine (10 mg/kg). An MBR-10 guide cannula was stereotactically implanted into the right hippocampus (bregma −3.1 mm, 2.4 mm lateral, 12° angle). Four hours later mice were anesthetized again for the insertion of a BR-4 microdialysis probe with 38 kDa molecular weight cutoff (MWCO) membrane (Cirrito et al., 2008. 2008. Neuron; 58, 42-51) which was introduced through the implanted guide cannula. The probe was positioned so that the microdialysis membrane was almost entirely embedded in the strata radiatum and lacunosum-moleculare of the CA1 hippocampal sector (FIG. 8A). […]
eAβ level in the ISF dialyzate was determined using sandwich ELISA specific for human Aβ1-x. […] Absorbance was read on the Epoch Microplate Spectrophotometer (BioTek Instruments, Inc. Winooski, Vt.). Following background subtraction, absorbance values from serially diluted synthetic Aβ samples were used to generate a standard curve in GraphPad Prism v5.02 (GraphPad Software, Inc., San Diego) using a non-linear curve-fitting algorithm. eAβ concentration in dialysate samples was determined by comparing their absorbance values against the standard curve. […]

**Q.** Which “hour after the infusion onset from which the increase in eAβ was observed” value does the source give for `CC(C)CC(NC(=O)C(CCCCN)NC(=O)CN)C(=O)NC(C(=O)NC(Cc1ccccc1)C(=O)N(C)CC(=O)NC(C)C(N)=O)C(C)C` (stereo not shown) [GKLVFNmgA] (H-GKLVF[Sar]A-NH2; configuration not given here) here?
**A.** seventh
